Assay results from publication PMC9369794 (Molecules, 2022).

What was measured:
[1] = Hydrodynamic diameter and colloidal stability of aggregates by dynamic light scattering; format: physicochemical; settings: for mean size (hydrodynamic diameter) / zeta potential: 37 °C; for PDI: sd^2/mean size^2
Description: In contrary, all spectra gave a hypsochromic shift and loss of fine-structure when the DMSO solutions were diluted with PBS, which refers to the formation of H-type (card-pack) aggregates (Figures S1–S12). Since DMSO-containing aqueous systems are more suitable for biological studies, we examined these solution by dynamic light scattering (DLS) spectroscopy to gain more information about the particles. The concentrations of the examined solutions were the same as used in the ABTS/TEAC measurements (0.3125–5.00 μM, see next section).
Size determination of aggregates and the colloidal stability of the sample dispersions were determined by dynamic light scattering measurements, where the hydrodynamic diameter of particles, and zeta potential values were collected. The number-weighted size distribution indicated one main peak in each case, the polydispersity index (PDI) was calculated as sd^2/mean size^2. For the particle size analysis Malvern Zetasizer Nano S instrument and for the zeta potential determination Malvern Zetasizer Nano Z instrument were used (Malvern Panalytical Ltd., Great Malvern, Worcestershire, UK). The measurements were carried out in autocorrelation mode, and the following parameters were kept constant: scattering angle 173°, attenuator 11 and its factor 0.0146, measurement position 4.65 mm. The concentrations of sample dispersions were between 0.3125 and 5 µM. The dispersion medium was PBS. Each samples was examined after 6 min incubation period at 37 °C.

[2] = FRAP assay for the antioxidant capacity; parameters: key to FRAP: slope of concentration-absorbance line divided by Trolox slope; settings: stock in THF, acetate buffer pH 3.0, 37 °C, 15 min; ratio of slopes to trolox (melatonin in EtOH)
Description: In the FRAP method the antioxidant reduces Fe^3+ to Fe^2+ in an acidic medium. These experiments were performed in an acetate buffer of pH 3.0, the stock solutions of the examined antioxidants were prepared in THF. The antioxidant capacities were compared to that of Trolox as a standard, just like in the ABTS assays.
A modified literature process was used. The FRAP reagent should also be prepared freshly each day. 2,4,6-Tris(2-pyridyl)-s-triazin (TPTZ) was dissolved in a 200 mM HCl solution and diluted with water to get a final 40 mM HCl and 10 mM TPTZ concentration. For the preparation of the FRAP reagent 30 mL of 20 mM FeCl3 solution and 30 mL of 10 mM TPTZ solution were mixed, and 300 mL of 300 mM acetate buffer with pH 3.0 was added (a pH lower than usual was used to avoid the precipitation of the TPTZ). The FRAP reagent was incubated at 37 °C for 15 min. 150 μL of antioxidant dissolved in THF was mixed with 2.85 mL FRAP reagent solution, and incubated at 37 °C for 15 min in dark. Measurements were carried out at each antioxidant concentration (0, 7.5; 10; 12.5; 15; 17.5 μM final concentration) in triplicate. In the 0 μM solution the antioxidant solution was substituted with acetate buffer (pH 3.0). The FRAP was determined at 600 nm: the absorbance values were plotted as a function of concentration of the sample compounds and that of Trolox for the standard reference data. The FRAP values were calculated as in the ABTS assays, i.e., the slope of the concentration-absorbance lines for the carotenoid derivatives was divided by that for the trolox.

[3] = TEAC assay using ABTS radical; settings: 6 min, ratio of slopes to trolox (melatonin dissolved in EtOH); for TEAC from THF: stock in THF diluted with PBS pH 7.4, 37 °C; for TEAC from DMSO: stock in DMSO diluted with PBS pH 7.4, 37 °C
Description: This method uses a redox reaction between ABTS^•+ radical cation and the examined antioxidants, which act as the reducing agents. […] As the carotenoids and the conjugates are poorly soluble in water, they were dissolved first either in small amounts of freshly distilled tetrahydrofuran (THF) or in dimethylsulfoxide (DMSO), and these stock solutions were diluted with phosphate-buffered saline (PBS) to the final nominal concentration.
The TEAC values were determined in isotonic phosphate buffer of pH 7.4. The buffer solution was made by dissolving 9.55 g of DPBS powder in distilled water to form 1L of solution (composition: 0.138 M NaCl, 0.0027 M KCl, 0.0081 M Na2HPO4, 0.0015 M KH2PO4). The assay was performed according to a literature process with slight modifications. The ABTS^•+ radical cation was produced by reacting 7 mM 2,2′-azino-bis(3-ethylbenzothiazoline-6-sulfonic acid) and 2.45 mM potassium persulfate in water. The stock ABTS^•+ solution was prepared 12–16 h before the experiments, and stored at room temperature in dark. The absorbance of the ABTS^•+ solution was set to 0.70 ± 0.05 at 734 nm by a ca. 100-fold dilution with phosphate-buffered saline (PBS). […] The stock solutions were diluted with PBS such that equal amounts of the diluted solutions were added to the ABTS^•+ reagent to obtain final antioxidants concentrations of 0.3125, 0.625, 1.25, 2.50, 3.75, 5 μM, respectively. In the blank (0 μM), the solutions of the antioxidants were substituted with THF or DMSO.
The antioxidants were incubated with ABTS^•+ solution at 37 °C for 6 min. During the reaction of ABTS^•+ with the antioxidants the absorbance of the solution decreases. The percentage inhibition of absorbance at 734 nm was calculated as (A0 − Aantioxidant)/A0, where A0 is the absorbance of the ABTS^•+ solution and Aantioxidant is the absorbance measured after the addition of the antioxidant. The determinations were carried out at each concentration in triplicate. The calculated values were plotted against the final concentration of the antioxidants. The slopes of the curves were compared with that for trolox, the TEAC value is the ratio of the slopes for the antioxidant and for trolox.

[4] = Study of aggregation by UV-Vis spectrophotometry; format: physicochemical; settings: for type of aggregates formed: from THF:aqueous solutions; for change of UV spectrum with increasing ratio of PBS: starting from THF solutions
From the text: It has been known for a long while that carotenoids or their derivatives can be prone to supramolecular organization in water or water-organic solvent mixtures. This behaviour is especially interesting because this higher organization can modulate or alter biological properties of carotenoids, as well [40]. A tendency to form supramolecular structures can be tested by recording the UV spectra in an organic solvent and increasing the ratio of water in the sample. […] We have some recent experience of such behaviour of carotenoid-flavonoid conjugates.
All of our adducts were tested with the method above using tetrahydrofurane (THF) or dimethylsulfoxide (DMSO) with increasing ratio of phosphate-buffered saline (PBS), which was the medium of the antioxidant measurements. […]
1. Study of Aggregation by UV-Vis Spectrophotometry
Starting from THF solutions: each conjugate was dissolved in freshly distilled THF and the solutions were diluted
either with THF or THF-PBS mixtures to obain final solutions of identical carotenoid concentration. […]
Figure S1. UV-spectra of 8’-apo-β-carotenol succinate ( 6) ( a) in THF and in THF-PBS mixtures ( 1:1 , 1:3); (b) in DMSO
Figure S2. UV-spectra of zeaxanthin bissuccinate ( 7) ( a) in THF and in THF-PBS mixtures ( 1:1 , 1:3); (b) in DMSO and
Figure S3. UV-spectra of zeaxanthin monosuccinate ( 11) ( a) in THF and in THF-PBS mixtures ( 1:1 , 1:3); (b) in DMSO […]

[5] = 0.3125 μM in PBS from DMSO stock
[6] = 0.625 μM in PBS from DMSO stock

Structure (SMILES)	mean size (hydrodynamic diameter) [1, 5]	zeta potential [1, 5]	PDI ([1]; 0.3125 μM in PBS)	mean size (hydrodynamic diameter) [1, 6]	zeta potential [1, 6]	mean size (hydrodynamic diameter) ([1]; 1.25 μM in PBS from DMSO stock)	zeta potential ([1]; 1.25 μM in PBS from DMSO stock)	mean size (hydrodynamic diameter) ([1]; 2.5 μM in PBS from DMSO stock)	zeta potential ([1]; 2.5 μM in PBS from DMSO stock)	PDI ([1]; 2.5 μM in PBS)	mean size (hydrodynamic diameter) ([1]; 3.75 μM in PBS from DMSO stock)	zeta potential ([1]; 3.75 μM in PBS from DMSO stock)	PDI ([1]; 3.75 μM in PBS)	mean size (hydrodynamic diameter) ([1]; 5 μM in PBS from DMSO stock)	zeta potential ([1]; 5 μM in PBS from DMSO stock)	PDI ([1]; 5 μM in PBS)	melting point	FRAP [2]	TEAC from THF [3]	change of UV spectrum with increasing ratio of PBS [4]	further results
COc1ccc2[nH]cc(CCNC(=O)CNC(=O)CCC(=O)O[C@@H]3CC(C)=C(/C=C/C(C)=C/C=C/C(C)=C/C=C/C=C(C)/C=C/C=C(C)/C=C/C4=C(C)CCCC4(C)C)C(C)(C)C3)c2c1 [Compound 15, Cryptoxanthin-melatonin conjugate]	29.79 nm	−13.4 mV	0.0356	31.22 nm	−23.5 mV	74.91 nm	−20.8 mV	305.10 nm	−20.4 mV	0.1649	826.80 nm	−11.8 mV	0.0840	615.10 nm	−15.7 mV	0.0992	153 to 154 °C	0.154	1.777	bathochromic shift	PDI ([1]; 0.625 μM in PBS): 0.1230; PDI ([1]; 1.25 μM in PBS): 0.1051; type of aggregates formed [4]: J-type (head-to-tail) aggregates
COc1ccc2[nH]cc(CCNC(=O)CNC(=O)CCC(=O)OC/C(C)=C/C=C/C(C)=C/C=C/C=C(C)/C=C/C=C(C)/C=C/C3=C(C)CCCC3(C)C)c2c1 [Compound 18, 8′-Apo-β-carotenol-melatonin conjugate]	148.60 nm	−22.0 mV	0.0199	212.00 nm	−22.8 mV	127.50 nm	−24.5 mV	93.29 nm	−29.5 mV	0.1229	182.80 nm	−31.4 mV	0.1662	201.10 nm	−37.5 mV	0.1788	123 to 124 °C	0.123	2.891	did not cause much change	PDI ([1]; 0.625 μM in PBS): 0.0397; PDI ([1]; 1.25 μM in PBS): 0.0726; TEAC from DMSO [3]: 3.00
COc1ccc2[nH]cc(CCNC(=O)CNC(=O)CCC(=O)O[C@@H]3CC(C)=C(/C=C/C(C)=C/C=C/C(C)=C/C=C/C=C(C)/C=C/C=C(C)/C=C/C4C(C)=C[C@@H](OC(=O)CCC(=O)NCC(=O)NCCc5c[nH]c6ccc(OC)cc56)CC4(C)C)C(C)(C)C3)c2c1 (stereo partly shown) [Compound 16, Lutein-bismelatonin conjugate]	131.20 nm	−12.2 mV	0.2022	51.10 nm	−11.7 mV	142.50 nm	−12.5 mV	91.19 nm	−27.5 mV	0.1585	39.28 nm	−1.4 mV	0.1229	43.14 nm	−0.5 mV	0.0264	123 to 124 °C	0.460	2.933	bathochromic shift	PDI ([1]; 0.625 μM in PBS): 0.0673; PDI ([1]; 1.25 μM in PBS): 0.0108; TEAC from DMSO [3]: 2.40; type of aggregates formed [4]: J-type (head-to-tail) aggregates
COc1ccc2[nH]cc(CCNC(=O)CNC(=O)CCC(=O)O[C@@H]3CC(C)=C(/C=C/C(C)=C/C=C/C(C)=C/C=C/C=C(C)/C=C/C=C(C)/C=C/C4=C(C)C[C@@H](OC(=O)CCC(=O)NCC(=O)NCCc5c[nH]c6ccc(OC)cc56)CC4(C)C)C(C)(C)C3)c2c1 [Compound 14, Zeaxanthin-bismelatonin conjugate]	too large for DLS	−0.7 mV		too large for DLS	−0.7 mV	too large for DLS	−1.0 mV	137.50 nm	−0.4 mV	0.0147	91.77 nm	−0.2 mV	0.0108	705.10 nm	0.0 mV	0.0659	149 to 150 °C	0.206	2.080	bathochromic shift	TEAC from DMSO [3]: 2.79; type of aggregates formed [4]: J-type (head-to-tail) aggregates
